Experimental data as given in patent US20180360072A1 (priority 2017, published 2018).
Where two headings read alike, the source gives them in different places.

What was measured:
C. jejuni = C. jejuni in vitro growth inhibition in BHI broth (OD600); format: cell-based, Campylobacter jejuni; conditions: 1 mM, 48 hours in BHI broth; for C. jejuni growth, OD600: microaerobic, without bile acid 0.153
Description: To evaluate bile acids on C. jejuni growth, the bacterium was inoculated in BHI broth. The medium was also added final concentration of 0, 0.2, 0.5, and 1 mM DCA, and 1 mM TCA and CA. After 48-hour culture under microaerobic condition, the bacterium growth was measured at OD600.

C. perfringens [1] = assay: microbe, parasite or virus in culture; format: cell-based, Clostridium perfringens
Ptgs2 and Atp6vg1 mRNA = assay: Host response gene mRNA accumulation in ileal tissue (real time PCR); format: in vivo; conditions: DCA diet; chicken ileal tissue; normalized to Gapdh
Description: Total RNA from chicken intestinal tissue was extracted using TRIzol (Invitrogen, Carlsbad, Calif.). Briefly, after bead beater disruption in TRIzol and chloroform and centrifugation, supernatant was precipitated with isopropanol. The pelleted RNA was washed once with 75% ethanol. The final RNA was dissolved in DNase/RNase free water and stored in −80° C. freezer. Complementary DNA was prepared using M-MLV (NEB).
Messenger RNA levels of proinflammatory genes were determined using SYBR Green PCR Master Mix (Bio-Rad, Hercules, Calif.) on an Bio-Rad 384-well Real-Time PCR System and normalized to Gapdh. The polymerase chain reactions were performed on 384-well real time PCR machine (Bio-Rad, Hercules, Calif.) according to the manufacturer's recommendation. […]

[2] = Separate growth experiment, 26 days: body weight gain and ileal fat and nitrogen levels; format: in vivo, broiler chicks; conditions: 1.5 g/kg feed DCA diet for 26 days vs basal diet
Description: In a separate experiment, birds were fed diet supplementing with DCA at 1.5 g/kg feed. After 26 days the birds were weighed and sacrificed and ileal content were collected. The dry matter (DM), crude fat, and nitrogen levels in the ileal content was analyzed at the Central Analytical Lab at Department of Poultry Science at University of Arkansas at Fayetteville, Ark.

[3] = system: E. maxima and C. perfringens; format: in vivo, broiler chicks
C. jejuni strain 81-176 = assay: C. jejuni 81-176 cecal colonization in broiler chicks fed DCA diet; format: in vivo; conditions: 1.5 g/kg DCA diet, 10^9 CFU/chick C. jejuni 81-176 at 14 days of age
[4] = system: E. maxima and C. perfringens; format: in vivo, broiler chicks; remark: listed apart in the source
Infγ, Tnfα and Mmp9 mRNA = system: Infγ, Tnfα and Mmp9 mRNA; parameters: species or system broiler chicks; conditions: in vivo
C. perfringens [5] = format: in vivo, broiler chicks; conditions: DCA birds vs NE control birds; 16S rDNA real time PCR
[6] = Broiler growth performance (body weight gain, feed conversion ratio) on DCA diet; format: in vivo, broiler chicks
[7] = system: C. perfringens 16S, Cpb and Virx mRNA; parameters: species or system broiler chicks; conditions: in vivo

## C[C@H](CCC(=O)NCCS(=O)(=O)O)[C@H]1CC[C@H]2[C@@H]3[C@H](O)C[C@@H]4C[C@H](O)CC[C@]4(C)[C@H]3C[C@H](O)[C@]12C [TCA, taurocholic acid, reference compound]
C. jejuni
  effect on C. jejuni growth: failed to inhibit C. jejuni growth
  C. jejuni growth, OD600: 0.197
C. perfringens [1]
  inhibition of C. perfringens growth: failed to prevent its growth

## C[C@H](CCC(=O)O)[C@H]1CC[C@H]2[C@@H]3CC[C@@H]4C[C@H](O)CC[C@]4(C)[C@H]3C[C@H](O)[C@]12C [DCA, deoxycholic acid]
Ptgs2 and Atp6vg1 mRNA
  Atp6vg1 mRNA accumulation change compared to control diet: +40%
  Ptgs2 mRNA accumulation change compared to control diet: +92%
[2]
  growth performance on body weight gain: promoted bird growth performance on body weight gain
[3]; 1.5 g/kg diet, d 18-23, compared to Em and NE control birds
  productivity / body weight gain loss at coccidiosis phase: prevented productivity loss
[3]; 1.5 g/kg diet, d 23-26, compared to NE control birds
  productivity / body weight gain loss at NE phase: prevented productivity loss
[3]; 1.5 g/kg diet, during 1-14 and 14-18 days of age, compared to birds fed other diets
  growth performance on body weight gain and feed efficiency before infection: promoted bird growth performance on body weight gain (FIG. 9A) and feed efficiency
C. jejuni strain 81-176; 2 days PI
  C. jejuni colonization level in ceca: 0 CFU/g
C. jejuni strain 81-176; 7 days PI
  C. jejuni colonization level in ceca: 9.0×10^2 CFU/g
C. jejuni strain 81-176; 14 days PI
  C. jejuni colonization level in ceca: 0 CFU/g
[4]; 1.5 g/kg diet, upper ileum, H&E, vs NE control birds
  NE-induced intestinal inflammation and histopathology score: significantly attenuated
Infγ, Tnfα and Mmp9 mRNA
  attenuation of NE-induced Infγ mRNA accumulation: 51%
  attenuation of NE-induced Mmp9 mRNA accumulation: 66%
  attenuation of NE-induced Tnfα mRNA accumulation: 82%
C. jejuni
  effect on C. jejuni growth: slightly enhanced but not inhibit C. jejuni growth
  C. jejuni growth, OD600: 0.213
C. perfringens [5]
  ileal luminal C. perfringens load: not significantly different from NE control birds
[6]
  accumulative feed conversion ratio improvement compared to control diet: 16.6%
[6]; at 28 days of age
  body weight gain increase compared to control diet: 11.9%
[6]; at 28 days of age, control diet 2.86
  body weight gain: 3.20 lb
[6]; control diet 1.81, lower value means better feed efficiency
  accumulative feed conversion ratio: 1.51
[7]
  block of C. perfringens 16S mRNA accumulation: 97%
  block of C. perfringens Cpb mRNA accumulation: 61%
  block of C. perfringens Virx mRNA accumulation: 61%
C. perfringens [1]; 0.4 mM, TSB, overnight, anaerobic, OD600
  inhibition of C. perfringens growth: 87%

## C[C@H](CCC(=O)O)[C@H]1CC[C@H]2[C@@H]3[C@H](O)C[C@@H]4C[C@H](O)CC[C@]4(C)[C@H]3C[C@H](O)[C@]12C [CA, cholic acid]
[3]; in vivo
  productivity / body weight gain loss at NE phase: attenuated body weight gain loss
  productivity / body weight gain loss at coccidiosis phase: failed
[4]; in vivo
  NE-induced intestinal inflammation and histopathology score: reduces bird NE intestinal inflammation
C. jejuni
  effect on C. jejuni growth: failed to inhibit C. jejuni growth
  C. jejuni growth, OD600: 0.19
C. perfringens [1]; Clostridium perfringens, 1 mM, read-out: inhibition of C. perfringens growth
  inhibition at 1000 µM: 30%
